Test results reported in patent US20050209295A1, “Methimazole derivatives and tautomeric cyclic thiones to inhibit cell adhesion” (priority 2004, published 2005).

Assays:
Type in all cases: cell-based, human
IRF-1 [1] = assay: EMSA of TNF-α induced IRF-1 binding activity to VCAM-1 promoter; conditions: 0.5 mM and 1 mM; 2 hr. TNF-α; HAEC nuclear extract
Procedure: Nuclear Extracts and EMSA: Nuclear extracts are prepared from harvested HAEC using NE-PER® extraction reagents (Pierce Chemical Co.; Rockford, Ill.) in the presence of a protease inhibitor cocktail (PMSF, Leupeptin, Pepstatin-A). Oligonucleotides (Biosynthesis Inc.; Lewisville, Tex.) are annealed and precipitated double stranded oligonucleotides end labeled with γ-^32P-ATP using T4 polynucleotide kinase enzyme. Binding reactions (20 min., room temperature) included ^32P-labeled probe (activity 100,000 cpm), 3-6 μg HAEC nuclear extract, 1 μg poly(dI-dC), 1 mM DTT, 10% glycerol and 1× binding buffer. Binding buffer (10×) for NF-κB EMSA is 200 mM HEPES-KOH (pH7.9), 340 mM KCl, 50 mM MgCl2, 5 mM EDTA (pH 8.0), 1% Triton X-100. Binding buffer (10×) for IRF-1 EMSA is 100 mM Tris-HCL (pH 7.5), 500 mM NaCl, 50 mM MgCl2, 10 mM EDTA (pH 8.0). In competition studies, nuclear extracts are incubated with 100 fold molar excess of unlabeled double stranded oligonucleotide. In supershift studies, nuclear extracts are incubated with 2 μg of appropriate antibodies. After the incubations, reaction mixtures are electrophoresed (160V, room temperature) on 5% non-denaturing polyacrylamide gels containing 5% glycerol in 1×TBE (50 mM Tris, 50 mM boric acid, and 1 mM EDTA). Gels are dried and autoradiographed. Each experiment is replicated at least twice. […]

E-selectin = assay: ELISA of TNF-α induced E-selectin protein on HAEC
Procedure: (§1) Cell culture and treatment of HAEC: Human aortic endothelial cells (HAEC; Cambrex Bio Science Walkersville, Inc., Walkersville, Md.) are cultured in M199 supplemented with 8% FBS, 100 μg/ml heparin, 10 ng/ml endothelial growth factor, 100 μg/ml hypothalamus extract, 2 mM L-glutamine, 1% non-essential amino acids, 100 units/ml penicillin and 100 μg/ml streptomycin. HAEC are subcultured on gelatin pre-coated: 96-well tissue culture plates (Corning Incorporated; Corning, N.Y.) for viability assays and ELISA; 100-mm tissue culture dishes (BD Falcon; Franklin Lakes, N.J.) for Northern blot analyses, Western blot analyses and EMSA; 35-mm tissue culture dishes (Corning) for adhesion assays and on 24-well tissue culture plates for luciferase promoter assays (BD Falcon). All experiments are performed with confluent HAEC monolayers. Unless noted otherwise, HAEC are treated with 25 ng/ml TNF-α, in the absence or presence of C-10 or 0.25% DMSO (carrier control for C-10), for 2-24 hrs. The concentration of DMSO is held constant at 0.25% (unless indicated otherwise) for all of the C-10 conditions.
HAEC are washed with cold HBSS+, fixed in 1% formaldehyde at 4° C. for 20 min., washed with cold HBSS+, and incubated in cold M199 containing 8% FBS. Unless otherwise noted, from this point on all antibody dilutions and washes are carried out with M199 containing 8% FBS. Murine mAbs (primary mAbs) to ECAMs are added (10 μg/ml) and the HAEC incubated at 4° C. for 20 min. Following the incubation, the wells are washed and a peroxidase conjugated polyclonal (secondary) antibody to mouse IgG is added (diluted 1:50). After a 20 min. incubation at 4° C., the wells are washed and treated with OPD dissolved in phosphate citrate buffer containing sodium perborate. Following a 10 min. incubation at room temperature, the absorbance of the fluid in each well is determined at 450 nm using a micro-well plate spectrophotometer (Molecular Devices; Sunnyvale, Calif.). In every experiment, each condition is run in triplicate wells.

IRF-1 [2] = assay: TNF-alpha-induced IRF-1 protein levels (Western blot)
Procedure: as §1
Western blot analysis: Whole cell lysates are prepared in lysis buffer (150 mM NaCl, 1% IGEPAL CA-630, 50 mM Tris-HCL pH 8.0). 20 μg of lysates are then resolved on 4-12% Bis-Tris PAGE gels under denaturing conditions using the NuPAGE Bis-Tris System (Invitrogen; Carlsbad, Calif.). Proteins are transferred to nitrocellulose membranes, which are probed with IRF-1 antibody. Subsequent binding of HRP conjugated goat anti-rabbit Ab (sc-2054, Santa Cruz Biotechnology, Inc.) is detected using Lumigen PS-3 detection reagents (Amersham Pharmacia Biotech.; Piscataway, N.J.).

## Cn1c(-c2ccccc2)cnc1S [5-Phenylmethimazole]
IRF-1 [1]
  effect on formation of TNF-α induced IRF-1 complex (EMSA): inhibits
E-selectin; 4 hr. TNF-α
  effect on TNF-α induced protein expression of E-selectin: little to no effect
E-selectin; 24 hr. TNF-α
  concentration at which significant reduction of TNF-α induced E-selectin protein expression is observed: ≥ 0.05 mM
  effect on TNF-α induced protein expression of E-selectin: significantly reduces
IRF-1 [2]; 0.5 mM or 1 mM, 2 hr. TNF-α, HAEC
  effect on TNF-α induced IRF-1 protein expression: reduced
IRF-1 [2]; 10 :M, mean ± SD
  % INHIBITION of TNF-alpha-induced IRF-1 Protein levels: 76 ± 12%
IRF-1 [2]; Homo sapiens, 5 mM, mean ± SD
  inhibition at 5000 µM: 95 ± 5%
